Experimental data from patent US20220281848A1, “PYRAZOLE-SUBSTITUTED PYRROLIDINONES AS HERBICIDES” (FMC Corporation, priority 2019, published 2022).

Columns and labels:
plants = assay: Test D post-emergence, other plants of Tables D2 and D4; type: in vivo; conditions: for STEME damage rating (100=total damage to plant; 0=no damage to plant) / VERPE damage rating (100=total damage to plant; 0=no damage to plant): "Cereals" Postemergent, evaluated after 15 d; for damage to plant (100=total damage to plant; 0=no damage to plant), ABUTH / damage to plant (100=total damage to plant; 0=no damage to plant), AMARE / damage to plant (100=total damage to plant; 0=no damage to plant), BIDPI / damage to plant (100=total damage to plant; 0=no damage to plant), BRAPL / damage to plant (100=total damage to plant; 0=no damage to plant), CYPES / damage to plant (100=total damage to plant; 0=no damage to plant), DIGSA / damage to plant (100=total damage to plant; 0=no damage to plant), ECHCG / damage to plant (100=total damage to plant; 0=no damage to plant), ELEIN / damage to plant (100=total damage to plant; 0=no damage to plant), EPHHL / damage to plant (100=total damage to plant; 0=no damage to plant), GLXMA / damage to plant (100=total damage to plant; 0=no damage to plant), IPOHE / damage to plant (100=total damage to plant; 0=no damage to plant), ORYSA / damage to plant (100=total damage to plant; 0=no damage to plant), PANMI / damage to plant (100=total damage to plant; 0=no damage to plant), SETFA / damage to plant (100=total damage to plant; 0=no damage to plant), SORVU: post-emergence
Method in brief: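 Damage was rated visually from 0 (none) to 100 (total), at 20 DAA for pre-emergence and 15 d for post-emergence. Plants grew from safener-treated seed in a glasshouse at 24/18° C. or 20/16° C. day/night, 65% humidity, watered twice daily.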

[1] = system: barnyardgrass (Echinochloa crus-galli, ECHCG); assay: Test A post-emergence, barnyardgrass; type: in vivo; conditions: after 13 d
Method in brief: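 Visual damage at 13 d after treatment, rated from 0 (no damage) to 100 (total damage). Eight-day-old pot-grown plants had been sprayed with 15.625, 62.5 or 250 g/ha of compound in aqueous acetone (50:50) containing 0.5% Tween 20.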

Compound: CN1CC(c2cc(C(F)(F)F)n(C)n2)C(C(=O)Nc2cccc(F)n2)C1=O (racemic) [Compound 24]
- STEME damage rating (100=total damage to plant; 0=no damage to plant) (plants; Rates 250): 0
- STEME damage rating (100=total damage to plant; 0=no damage to plant) (plants; Rates 500): 0
- VERPE damage rating (100=total damage to plant; 0=no damage to plant) (plants; Rates 130): 0
- VERPE damage rating (100=total damage to plant; 0=no damage to plant) (plants; Rates 250): 0
- VERPE damage rating (100=total damage to plant; 0=no damage to plant) (plants; Rates 500): 20
- damage to plant (100=total damage to plant; 0=no damage to plant), ABUTH (plants; rate 130, evaluated after 15 d): 0
- damage to plant (100=total damage to plant; 0=no damage to plant), ABUTH (plants; rate 250, evaluated after 15 d): 0
- damage to plant (100=total damage to plant; 0=no damage to plant), ABUTH (plants; rate 500, evaluated after 15 d): 10
- damage to plant (100=total damage to plant; 0=no damage to plant), AMARE (plants; rate 130, evaluated after 15 d): 0
- damage to plant (100=total damage to plant; 0=no damage to plant), AMARE (plants; rate 250, evaluated after 15 d): 0
- damage to plant (100=total damage to plant; 0=no damage to plant), AMARE (plants; rate 500, evaluated after 15 d): 0
- damage to plant (100=total damage to plant; 0=no damage to plant), BIDPI (plants; rate 130, evaluated after 15 d): 0
- damage to plant (100=total damage to plant; 0=no damage to plant), BIDPI (plants; rate 250, evaluated after 15 d): 0
- damage to plant (100=total damage to plant; 0=no damage to plant), BIDPI (plants; rate 500, evaluated after 15 d): 0
- damage to plant (100=total damage to plant; 0=no damage to plant), BRAPL (plants; rate 130, evaluated after 15 d): 0
- damage to plant (100=total damage to plant; 0=no damage to plant), BRAPL (plants; rate 250, evaluated after 15 d): 40
- damage to plant (100=total damage to plant; 0=no damage to plant), BRAPL (plants; rate 500, evaluated after 15 d): 50
- damage to plant (100=total damage to plant; 0=no damage to plant), CYPES (plants; rate 130, evaluated after 15 d): 0
- damage to plant (100=total damage to plant; 0=no damage to plant), CYPES (plants; rate 250, evaluated after 15 d): 0
- damage to plant (100=total damage to plant; 0=no damage to plant), CYPES (plants; rate 500, evaluated after 15 d): 10
- damage to plant (100=total damage to plant; 0=no damage to plant), DIGSA (plants; rate 130, evaluated after 15 d): 0
- damage to plant (100=total damage to plant; 0=no damage to plant), DIGSA (plants; rate 250, evaluated after 15 d): 0
- damage to plant (100=total damage to plant; 0=no damage to plant), DIGSA (plants; rate 500, evaluated after 15 d): 0
- damage to plant (100=total damage to plant; 0=no damage to plant), ECHCG (plants; rate 130, evaluated after 15 d): 0
- damage to plant (100=total damage to plant; 0=no damage to plant), ECHCG (plants; rate 250, evaluated after 15 d): 0
- damage to plant (100=total damage to plant; 0=no damage to plant), ECHCG (plants; rate 500, evaluated after 15 d): 0
- damage to plant (100=total damage to plant; 0=no damage to plant), ELEIN (plants; rate 130, evaluated after 15 d): 0
- damage to plant (100=total damage to plant; 0=no damage to plant), ELEIN (plants; rate 250, evaluated after 15 d): 0
- damage to plant (100=total damage to plant; 0=no damage to plant), ELEIN (plants; rate 500, evaluated after 15 d): 0
- damage to plant (100=total damage to plant; 0=no damage to plant), EPHHL (plants; rate 130, evaluated after 15 d): 0
- damage to plant (100=total damage to plant; 0=no damage to plant), EPHHL (plants; rate 250, evaluated after 15 d): 0
- damage to plant (100=total damage to plant; 0=no damage to plant), EPHHL (plants; rate 500, evaluated after 15 d): 20
- damage to plant (100=total damage to plant; 0=no damage to plant), GLXMA (plants; rate 130, evaluated after 15 d): 0
- damage to plant (100=total damage to plant; 0=no damage to plant), GLXMA (plants; rate 250, evaluated after 15 d): 0
- damage to plant (100=total damage to plant; 0=no damage to plant), GLXMA (plants; rate 500, evaluated after 15 d): 10
- damage to plant (100=total damage to plant; 0=no damage to plant), IPOHE (plants; rate 130, evaluated after 15 d): 0
- damage to plant (100=total damage to plant; 0=no damage to plant), IPOHE (plants; rate 250, evaluated after 15 d): 0
- damage to plant (100=total damage to plant; 0=no damage to plant), IPOHE (plants; rate 500, evaluated after 15 d): 10
- damage to plant (100=total damage to plant; 0=no damage to plant), ORYSA (plants; rate 130, evaluated after 15 d): 0
- damage to plant (100=total damage to plant; 0=no damage to plant), ORYSA (plants; rate 250, evaluated after 15 d): 0
- damage to plant (100=total damage to plant; 0=no damage to plant), ORYSA (plants; rate 500, evaluated after 15 d): 10
- damage to plant (100=total damage to plant; 0=no damage to plant), PANMI (plants; rate 130, evaluated after 15 d): 0
- damage to plant (100=total damage to plant; 0=no damage to plant), PANMI (plants; rate 250, evaluated after 15 d): 0
- damage to plant (100=total damage to plant; 0=no damage to plant), PANMI (plants; rate 500, evaluated after 15 d): 10
- damage to plant (100=total damage to plant; 0=no damage to plant), SETFA (plants; rate 130, evaluated after 15 d): 0
- damage to plant (100=total damage to plant; 0=no damage to plant), SETFA (plants; rate 250, evaluated after 15 d): 0
- damage to plant (100=total damage to plant; 0=no damage to plant), SETFA (plants; rate 500, evaluated after 15 d): 10
- damage to plant (100=total damage to plant; 0=no damage to plant), SORVU (plants; rate 130, evaluated after 15 d): 0
- damage to plant (100=total damage to plant; 0=no damage to plant), SORVU (plants; rate 250, evaluated after 15 d): 0
- damage to plant (100=total damage to plant; 0=no damage to plant), SORVU (plants; rate 500, evaluated after 15 d): 0
- damage to plant (100=total damage; 0=no damage) ECHCG ([1]; Post-Emergence at 15.625 g/ha): 40
- damage to plant (100=total damage; 0=no damage) ECHCG ([1]; Post-Emergence at 62.5 g/ha): 80
- damage to plant (100=total damage; 0=no damage) ECHCG ([1]; Post-Emergence at 250 g/ha): 80
